Experiment [1] has as its system 786-O (renal adenocarcinoma) cell line. The experiment can be described thus: CellTiter-Glo luminescent cell viability assay, 786-O. The experiment is classed as cell-based, human. The conditions noted are these: Homo sapiens, 786-0; for viability at 4 µM / viability at 10 µM: 786-O, 72 h; for viability at 4 µM: compound at 4 μM; for viability at 10 µM: compound at 10 μM; for EC50: 786-O cell line, 72 h incubation, CellTiter-Glo, read-out: EC50, growth inhibition of 786-O. An outline of the steps:
(§1)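 Adherent lines plated overnight, MOLM-14 (suspension) 1 h before dosing, in medium with 10% FBS at 37 °C, 5% CO2. Compounds added at varying concentrations for 72 h; CellTiter-Glo luminescence read, EC50 as dose reducing signal to 50% of diluent-treated cells, at least duplicate points.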

The subject of experiment [2] is PANC-1 (prancreatic carcinoma) cell line. The experiment can be described thus: CellTiter-Glo luminescent cell viability assay, PANC-1. The experiment is classed as cell-based. Conditions: Homo sapiens; for viability at 4 µM: PANC-1, 4 μM; for viability at 4 µM / viability at 10 µM: 72 h, % of signal of diluent-treated cultures; for viability at 10 µM: PANC-1, 10 μM. An outline of the steps: (§2)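 Cells were cultured at 37 °C, 5% CO2 with 10% FBS; adherent lines were plated overnight, suspension MOLM-14 plated 1 h before dosing. Compounds in H2O or DMSO were added at various concentrations for 72 h, and viability was read by luminescence. EC50 is the dose reducing signal to 50% of diluent control.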

The subject of experiment [3] is HepG2 (hepatocellular carcinoma) cell line. The experiment can be described thus: CellTiter-Glo luminescent cell viability assay, HepG2. The experiment is classed as cell-based, human. The conditions noted are these: Homo sapiens; for viability at 4 µM / viability at 10 µM: HepG2, HepG, 72 h; for viability at 4 µM: compound at 4 μM; for viability at 10 µM: compound at 10 μM; for EC50: HepG2 cell line, 72 h incubation, CellTiter-Glo, read-out: EC50, growth inhibition of HepG2. An outline of the steps:
as §2
For orientation: ATP-based viability assays read luminescence as a measure of living cells.

Experiment [4] concerns A375 (malignant melanoma) cell line. Put plainly: CellTiter-Glo luminescent cell viability assay, A375. The experiment is classed as cell-based, human. The conditions noted are these: Homo sapiens, A-375; for viability at 4 µM: A375, compound at 4 μM; for viability at 4 µM / viability at 10 µM: 72 h; for viability at 10 µM: A375, compound at 10 μM; for EC50: A375 cell line, 72 h incubation, CellTiter-Glo, read-out: EC50, growth inhibition of A375. An outline of the steps: as §1

For experiment [5], the system named is HCT-116 (colorectal carcinoma) cell line. The experiment can be described thus: CellTiter-Glo luminescent cell viability assay, HCT-116. The experiment is classed as cell-based, human. The conditions noted are these: Homo sapiens; for viability at 4 µM: HCT-116, compound at 4 μM; for viability at 4 µM / viability at 10 µM: 72 h; for viability at 10 µM: HCT-116, compound at 10 μM; for EC50: HCT-116 cell line, 72 h incubation, CellTiter-Glo, read-out: EC50, growth inhibition of HCT-116. An outline of the steps:
as §1

Experiment [6] deals with Huh7 (hepatocellular carcinoma) cell line. Put plainly: CellTiter-Glo luminescent cell viability assay, Huh7. The experiment is classed as cell-based, human. Conditions: Homo sapiens, Huh-7; for viability at 4 µM: Huh7, compound at 4 μM; for viability at 4 µM / viability at 10 µM: 72 h; for viability at 10 µM: Huh7, compound at 10 μM; for EC50: Huh7 cell line, 72 h incubation, CellTiter-Glo, read-out: EC50, growth inhibition of Huh7. An outline of the steps:
as §2

Experiment [7] has as its system MOLM-14 (acute myeloid leukemia) cell line. Put plainly: CellTiter-Glo luminescent cell viability assay, MOLM-14. The experiment is classed as cell-based, human. Conditions: Homo sapiens; for viability at 4 µM: MOLM-14, compound at 4 μM; for viability at 4 µM / viability at 10 µM: 72 h; for viability at 10 µM: MOLM-14, compound at 10 μM; for EC50: MOLM-14 cell line, 72 h incubation, CellTiter-Glo, read-out: EC50, growth inhibition of MOLM-14. The procedure, abridged: as §2

On to `CC(C)(C)NC1CCN(c2c(C#N)c(NCc3ccncc3)nc3ccccc23)CC1` [Compound 3306CN, 2-[(pyridin-4-ylmethyl)amino]-3-cyano-4-[4-(tert-butylamino)piperidin-1-yl]quinoline], for which the viability (usually a read-out of living cells in per cent, often relative to untreated cells) at 4 µM in experiment [1] worked out at 84%; in experiment [2], 101%; in experiment [3], 83.4%; in experiment [4], 79.2%; in experiment [5] it was 83.9%; in experiment [6] it was 91.7%. Moreover, the viability at 4 µM in experiment [7] was 97.6%. The viability at 10 µM in experiment [1] turned out to be 71.7%; in experiment [2], 93.3%; in experiment [3], 71.6%; in experiment [4], 77.4%; in experiment [5], 72.6%; in experiment [6], 82.4%. In experiment [7], the viability at 10 µM was found to be 94.5%.

Turning to `N#Cc1c(NCc2ccc(Cl)cc2)nc2ccccc2c1N1CCC(N2CCCC2)CC1` [Compound 200CN, 2-(4-chlorobenzylamino)-3-cyano-4-[4-(pyrrolidin-1-yl)piperidin-1-yl]quinoline], the EC50 (in general, the concentration at which the effect is half-maximal) in experiment [1] was in the range of 0.5 to 5 µM; in experiment [2] (PANC-1 cell line, 72 h incubation, CellTiter-Glo, read-out: EC50 (growth inhibition assay of PANC-1 cell line)) it was 5 to 10 µM; in experiment [3], 5 to 10 µM; in experiment [4], 0.5 to 5 µM; in experiment [5] it was 0.5 to 5 µM; in experiment [6], 5 to 10 µM. Moreover, the EC50 in experiment [7] lay in the range of 0.5 to 5 µM. Also, the viability at 4 µM in experiment [1] came out at 74.8%; in experiment [2], 98.8%; in experiment [3], 90.8%; in experiment [4], 65.9%; in experiment [5] it was 78.1%; in experiment [6], 83.1%. The viability at 4 µM in experiment [7] stood at 92.7%. Also, the viability at 10 µM in experiment [1] worked out at 2.2%; in experiment [2] it was 60.8%; in experiment [3] it was 0.9%; in experiment [4], 0.4%; in experiment [5], 0.5%; in experiment [6], 0.7%. For the same molecule, the viability at 10 µM in experiment [7] was determined as 0.4%.

For the molecule `N#Cc1c(NCc2ccc(Cl)cc2)nc2ccccc2c1N1CCC(NC2CCCC2)C1` (stereo not drawn) [Compound 134CN, 2-(4-chloro-benzylamino)-3-cyano-4-[3-(cyclopentyl-amino)pyrroli-din-1-yl]quinoline], the viability at 4 µM in experiment [1] was found to be 92.8%; in experiment [2], 99.4%; in experiment [3] it was 101%; in experiment [4], 79.9%; in experiment [5] it was 88.5%; in experiment [6], 85.3%. The viability at 4 µM in experiment [7] was 100%. Besides, the viability at 10 µM in experiment [1] was 64%; in experiment [2], 91.7%; in experiment [3] it was 81.3%; in experiment [4], 29.1%; in experiment [5], 50.6%; in experiment [6] it was 70.5%. For the same molecule, the viability at 10 µM in experiment [7] came to 89.5%.

As to `CC(C)(C)NC1CCN(c2c(C#N)c(Nc3cccc(F)c3)nc3ccccc23)CC1` [Compound 3262CN, 2-(3-fluorophenylamino)-3-cyano-4-[4-(tert-butylamino)piperidin-1-yl]quinoline], the EC50 lay within 0.5 to 5 µM in experiment [1]; 5 to 10 µM in experiment [3]; 5 to 10 µM in experiment [4]; 0.5 to 5 µM in experiment [5]; 5 to 10 µM in experiment [6]; 5 to 10 µM in experiment [7]. Moreover, the viability at 4 µM worked out at 42.6% in experiment [1]; 101% in experiment [2]; 70.8% in experiment [3]; 74.9% in experiment [4]; 2.6% in experiment [5]; 67.9% in experiment [6]. In addition, the viability at 4 µM in experiment [7] is 98.7%. In addition, the viability at 10 µM in experiment [1] was determined as 0.7%; in experiment [2], 48%; in experiment [3] it was 0.6%; in experiment [4], 0.6%; in experiment [5], 0.5%; in experiment [6], 0.7%. For the same molecule, in experiment [7], the viability at 10 µM came to 0.6%.

These data come from patent publication US10577362B2, “Substituted 2, 4-diamino-quinoline derivatives for use in the treatment of proliferative diseases” (GENOSCIENCE PHARMA, priority 2016, dated 2020).
